These results are taken from patent publication US11834450B2, “Compounds having ((3-nitrophenyl)sulfonyl)acetamide as BCL-2 inhibitors” (Eil Therapeutics, Inc., priority 2021, dated 2023).

Structures are written as SMILES.

One series deals with T1, BCL-2 (Homo sapiens, UniProt P10415).
T1 construct: purchased BPS Bioscience #50222
As to the kind of experiment: BCL-2 TR-FRET Assay (primary PPI inhibition). Type of series: binding. Conditions: 60 min incubation; read-out: BCL2 (IC50 code, BCL-2 TR-FRET). (In TR-FRET formats the signal depends on donor and acceptor labels being close together.)

For another series, the target named is T2, BCL-XL (Homo sapiens, UniProt Q07817).
T2 construct: purchased BPS Bioscience #50223
The experiment in a line: BCL-XL TR-FRET Assay (primary PPI inhibition). Conditions: 60 min incubation; read-out: BCLxL (IC50 code, BCL-XL TR-FRET). Type of series: binding. The method, then:
BCL-XL TR-FRET Assay (BPS Bioscience, #50223) Assay Condition: The following assay concentrations and times were used: 10.5 ng BCL-XL, 5 ul of 1:100 anti-His Tb-labeled donor, 5 ul of 1:100 Dye-labeled acceptor, 5 ul of 1:80 BCL-XL Peptide Ligand, and 2 ul of test compound, with 60 min incubation time. The results of the assay were read using a Clariostar (BMG Labtech) plate reader with the following parameters: TR FRET, 340 ex/620 and 665 em; 60 μsec Delay; and 500 μsec integration.

A further series has as its system RS4-11 cells. The experiment in a line: Cell viability assay RS4-11 (CellTiter-Glo). The series is classed as cell-based. The conditions noted are these: Homo sapiens, 72 h; RS4-11 cells, 3 days, CellTiter-Glo; read-out: RS4-11 (CC50 code). On the procedure:
(§1) Assay Condition: Used culture medium for HEK293-DMEM (PanEco, Cat #C420), for the rest of the cell lines—culture medium RPMI-1640 (PanEco, Cat #C363).
(§2) Assay Procedure: Compounds were prepared as 200× stocks with serial dilution in 100% DMSO with a final concentration of 1×. Dispersed 40 μl in 384-well plates at a concentration of 2000 cells per well for HEK293 and at a concentration of 4000 cells per well for the rest of the cell lines using a robotic station Biomek (Beckman). Before adding compounds, the cells were incubated at 37° C. (HEK293 were incubated for a day before adding compounds).
(§3) A dilution plate was prepared by pouring 78 μl of the appropriate culture medium using a robotic station Biomek (Beckman). Sequentially, using a robotic station, 2 μl of substances were taken and added to 78 μl of culture medium (dilution of compounds 40×). Took from there 10 μl and added to the plates to the cells (dilution of compounds 5×). The plates were incubated for 3 days at a temperature 37° C. After 3 days, 10 μl of CellTiter-Glo (Promega) was added to the cells and the luminescence was measured.
(In ATP-based viability assays light output follows the ATP content of the culture.)

A further series deals with MOLT-4 cells. The experiment in a line: Cell viability assay MOLT-4 (CellTiter-Glo). Type of series: cell-based. Conditions: Homo sapiens, 72 h; MOLT-4 cells, 3 days, CellTiter-Glo; read-out: MOLT-4 (CC50 code). The method, then:
as §1, §2, §3

The nature of series [1]: Cell viability assay HEK293 (CellTiter-Glo). The series is classed as cell-based. The conditions noted are these: human, HEK293 cells, read-out: HEK293 (CC50 code). On the procedure: as §1, §2, §3
In series [2] the test system is caspase-3 and -7 activities in RS4-11 cells. The experiment in a line: Cas-3/7 activation (Caspase-Glo 3/7) in RS4-11 cells. Type of series: cell-based. Conditions: Homo sapiens, 3.5 h at 37° C. and 30 min at r.t., read-out: Cas-3/7 (EC50 code). On the procedure:
Assay Principle: The Caspase-Glo 3/7 Assay is homogeneous, luminescent assay that measures caspase-3 and -7 activities. The assay provides a luminogenic caspase-3/7 substrate, which contains the tetrapeptide sequence DEVD, in a reagent optimized for caspase activity.
Assay Procedure: Incubate RS4-11 cells with varying concentrations of test compounds for 3.5 h in a humidified incubator at 37° C. and 5% CO2 and 30 min at r.t. Add 15 μl Caspase-Glo reagent to each well and incubate the plate for 30 min at r.t. Read on ClarioStar Plus instrument.
Materials: Promega Caspase-Glo (Promega, #8212); Frozen RS4-11 cells; 384-well white plate (Corning, #3570).
Instrumentation: ClarioStar Plus; Biomek FX for liquid handling (Beckman Coulter).

T1 sequence (P10415 whole entry): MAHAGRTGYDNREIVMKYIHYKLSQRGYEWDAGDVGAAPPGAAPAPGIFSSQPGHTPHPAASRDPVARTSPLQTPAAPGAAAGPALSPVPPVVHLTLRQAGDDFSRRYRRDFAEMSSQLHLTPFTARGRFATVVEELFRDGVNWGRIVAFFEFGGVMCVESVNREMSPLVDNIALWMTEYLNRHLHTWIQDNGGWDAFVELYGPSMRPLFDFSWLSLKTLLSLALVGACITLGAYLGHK
T2 sequence (Q07817 whole entry): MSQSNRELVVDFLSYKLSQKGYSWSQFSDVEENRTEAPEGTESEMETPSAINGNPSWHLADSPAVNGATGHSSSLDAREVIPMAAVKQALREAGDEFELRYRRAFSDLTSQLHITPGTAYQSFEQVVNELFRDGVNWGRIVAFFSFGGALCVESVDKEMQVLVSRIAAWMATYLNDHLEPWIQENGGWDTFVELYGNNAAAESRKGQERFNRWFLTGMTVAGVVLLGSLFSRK

For orientation: IC50 means the midpoint of a concentration-inhibition curve. Usually CC50 stands for the concentration at which the toxic effect on the cells reaches its halfway point. Take `O=C(NS(=O)(=O)c1ccc(NCC2CCOCC2)c([N+](=O)[O-])c1)c1ccc(N2CCC(CN3C(=O)C4(CCCC4)C3c3ccccc3)CC2)cc1Oc1cnc2[nH]ccc2c1` (centres unmarked) [Compound 2, N-[3-nitro-4-(tetrahydropyran-4-ylmethylamino)phenyl]sulfonyl-4-[4-[(3-oxo-1-phenyl-2-azaspiro[3.4]octan-2-yl)methyl]-1-piperidyl]-2-(1H-pyrrolo[2,3-b]pyridin-5-yloxy)benzamide]: the IC50 at BCL-2 is over 50 nM; on BCL-XL, over 4000 nM. The CC50 in the series with RS4-11 cells was over 200 nM; with MOLT-4 cells, over 10000 nM. Besides, the CC50 at 3 days in series [1] was over 25000 nM. Besides, in series [2], the EC50 was over 250 nM.

As for `Cc1cc(Cl)ccc1C1N(CC2CCN(c3ccc(C(=O)NS(=O)(=O)c4ccc(NCC5CCOCC5)c([N+](=O)[O-])c4)c(Oc4cnc5[nH]ccc5c4)c3)CC2)C(=O)C12CCCC2` (centres unmarked) [Compound 3, 4-[4-[[1-(4-chloro-2-methyl-phenyl)-3-oxo-2-azaspiro[3.4]octan-2-yl]methyl]-1-piperidyl]-N-[3-nitro-4-(tetrahydropyran-4-ylmethylamino)phenyl]sulfonyl-2-(1H-pyrrolo[2,3-b]pyridin-5-yloxy)benzamide], the half-inhibitory concentration (IC50) lay within 10 to 50 nM at BCL-2 and 2000 to 4000 nM at BCL-XL. Also, the results for the CC50 in the series with RS4-11 cells and in the series with MOLT-4 cells were over 200 nM and 2000 to 10000 nM, respectively. Also, the CC50 at 3 days in series [1] was over 25000 nM. The EC50 in series [2] was over 250 nM.

With `O=C(NS(=O)(=O)c1ccc(NCC2CCOCC2)c([N+](=O)[O-])c1)c1ccc(N2CCN(CC(c3ccccc3)c3ccccc3)CC2)cc1Oc1cnc2[nH]ccc2c1` [Compound 4, 4-[4-(2,2-diphenylethyl)piperazin-1-yl]-N-[3-nitro-4-(tetrahydropyran-4-ylmethylamino)phenyl]sulfonyl-2-(1H-pyrrolo[2,3-b]pyridin-5-yloxy)benzamide], the half-maximal inhibitory concentration (IC50) at BCL-2 was over 50 nM; at BCL-XL it was over 4000 nM. In addition, the CC50 was over 200 nM in the series with RS4-11 cells and 2000 to 10000 nM with MOLT-4 cells. Moreover, in series [1], the CC50 at 3 days is over 25000 nM. The EC50 in series [2] is over 250 nM.

As for `O=C(NS(=O)(=O)c1ccc(NCC2CCOCC2)c([N+](=O)[O-])c1)c1ccc(N2CCN(C[C@@H]3Cc4ccccc4CN3C(=O)C3CC3)CC2)cc1Oc1cnc2[nH]ccc2c1` [Compound 5, 4-[4-[[(3S)-2-(cyclopropanecarbonyl)-3,4-dihydro-1H-isoquinolin-3-yl]methyl]piperazin-1-yl]-N-[3-nitro-4-(tetrahydropyran-4-ylmethylamino)phenyl]sulfonyl-2-(1H-pyrrolo[2,3-b]pyridin-5-yloxy)benzamide], the IC50 at BCL-2 is 10 to 50 nM; on BCL-XL, at most 2000 nM. The figures for the cytotoxic concentration (CC50) in the series with RS4-11 cells and with MOLT-4 cells were over 200 nM and 2000 to 10000 nM, respectively. Also, the CC50 at 3 days in series [1] was over 25000 nM. Also, the EC50 in series [2] was over 250 nM.

Regarding `O=C(NS(=O)(=O)c1ccc(NCC2CCOCC2)c([N+](=O)[O-])c1)c1ccc(N2CCN(CC3Cc4ccccc4CN3C(=O)c3cccs3)CC2)cc1Oc1cnc2[nH]ccc2c1` (centres unmarked) [Compound 6, N-[3-nitro-4-(tetrahydropyran-4-ylmethylamino)phenyl]sulfonyl-2-(1H-pyrrolo[2,3-b]pyridin-5-yloxy)-4-[4-[[2-(thiophene-2-carbonyl)-3,4-dihydro-1H-isoquinolin-3-yl]methyl]piperazin-1-yl]benzamide], the IC50 on BCL-2 is over 50 nM; on BCL-XL, at most 2000 nM. For the same compound, the CC50 was over 200 nM with RS4-11 cells and 2000 to 10000 nM in the series on MOLT-4 cells. Moreover, the CC50 at 3 days in series [1] is over 25000 nM. Besides, the EC50 in series [2] is over 250 nM.

With `O=C(NS(=O)(=O)c1ccc(NCC2CCOCC2)c([N+](=O)[O-])c1)c1ccc(N2CCN(CC(O)(c3ccccc3)c3ccccc3)CC2)cc1Oc1cnc2[nH]ccc2c1` [Compound 7, 4-[4-(2-hydroxy-2,2-diphenyl-ethyl)piperazin-1-yl]-N-[3-nitro-4-(tetrahydropyran-4-ylmethylamino)phenyl]sulfonyl-2-(1H-pyrrolo[2,3-b]pyridin-5-yloxy)benzamide], the IC50 at BCL-2 was 10 to 50 nM; at BCL-XL, over 4000 nM. Moreover, the CC50 with RS4-11 cells was over 200 nM; in the series on MOLT-4 cells, 2000 to 10000 nM. Moreover, in series [1], the CC50 at 3 days was over 25000 nM. Also, in series [2], the EC50 is over 250 nM.

As to `CC(C)C(=O)N1Cc2ccccc2C[C@@H]1CN1CCN(c2ccc(C(=O)NS(=O)(=O)c3ccc(NCC4CCOCC4)c([N+](=O)[O-])c3)c(Oc3cnc4[nH]ccc4c3)c2)CC1` [Compound 37, 4-[4-[[(3R)-2-(2-methylpropanoyl)-3,4-dihydro-1H-isoquinolin-3-yl]methyl]piperazin-1-yl]-N-[3-nitro-4-(tetrahydropyran-4-ylmethylamino)phenyl]sulfonyl-2-(1H-pyrrolo[2,3-b]pyridin-5-yloxy)benzamide], the IC50 was over 50 nM on BCL-2 and over 4000 nM at BCL-XL. For the same compound, the EC50 in series [2] is over 250 nM.

For the compound `CC1(C)Cc2ccccc2CN1CC1CCN(c2ccc(C(=O)NS(=O)(=O)c3ccc(NCC4CCOCC4)c([N+](=O)[O-])c3)c(Oc3cnc4[nH]ccc4c3)c2)CC1` [Compound 38, 4-[4-[(3,3-dimethyl-1,4-dihydroisoquinolin-2-yl)methyl]-1-piperidyl]-N-[3-nitro-4-(tetrahydropyran-4-ylmethylamino)phenyl]sulfonyl-2-(1H-pyrrolo[2,3-b]pyridin-5-yloxy)benzamide], the IC50 at BCL-2 is over 50 nM; on BCL-XL it was over 4000 nM. In series [2], the EC50 is over 250 nM.

For the compound `O=C(NS(=O)(=O)c1ccc(NCC2CCOCC2)c([N+](=O)[O-])c1)c1ccc(N2CCN(C[C@@H]3Cc4cc(Cl)ccc4CN3C(=O)C3CC3)CC2)cc1Oc1cnc2[nH]ccc2c1` [Compound 42, 4-[4-[[(3S)-6-chloro-2-(cyclopropanecarbonyl)-3,4-dihydro-1H-isoquinolin-3-yl]methyl]piperazin-1-yl]-N-[3-nitro-4-(tetrahydropyran-4-ylmethylamino)phenyl]sulfonyl-2-(1H-pyrrolo[2,3-b]pyridin-5-yloxy)benzamide], the results for the CC50 in the series on RS4-11 cells and with MOLT-4 cells were over 200 nM and 2000 to 10000 nM, respectively. In addition, the CC50 at 3 days in series [1] is over 25000 nM. In addition, the EC50 in series [2] is over 250 nM.

Turning to `O=C(NS(=O)(=O)c1ccc(NCC2CCOCC2)c([N+](=O)[O-])c1)c1ccc(N2CCC(CN3CCCCCC3c3ccc(Cl)cc3)CC2)cc1Oc1cnc2[nH]ccc2c1` (centres unmarked) [Compound 44, 4-[4-[[2-(4-chlorophenyl)azepan-1-yl]methyl]-1-piperidyl]-N-[3-nitro-4-(tetrahydropyran-4-ylmethylamino)phenyl]sulfonyl-2-(1H-pyrrolo[2,3-b]pyridin-5-yloxy)benzamide], the IC50 at BCL-2 is over 50 nM. Further, the CC50 with RS4-11 cells is over 200 nM; in the series with MOLT-4 cells, 2000 to 10000 nM. In addition, the CC50 at 3 days in series [1] was over 25000 nM. Besides, the EC50 in series [2] is over 250 nM.

As for `O=C(NS(=O)(=O)c1ccc(NCC2CCOCC2)c([N+](=O)[O-])c1)c1ccc(N2CCC(CN3CCCCC3c3ccc(Cl)cc3)CC2)cc1Oc1cnc2[nH]ccc2c1` (centres unmarked) [Compound 47, 4-[4-[[2-(4-chlorophenyl)-1-piperidyl]methyl]-1-piperidyl]-N-[3-nitro-4-(tetrahydropyran-4-ylmethylamino)phenyl]sulfonyl-2-(1H-pyrrolo[2,3-b]pyridin-5-yloxy)benzamide], the IC50 at BCL-2 lay within 10 to 50 nM. The values for the CC50 in the series on RS4-11 cells and with MOLT-4 cells were over 200 nM and 2000 to 10000 nM, respectively. Besides, the CC50 at 3 days in series [1] fell in the range of 10000 to 25000 nM. For the same compound, the EC50 in series [2] was over 250 nM.
